{"source": "patent US8124593B2", "about": "“Methods of treatment using sapacitabine” (Cyclacel Limited, priority 2007, dated 2012)", "key": {"NSCLC": {"tested_on": "NSCLC", "details": "10 mg/m^2 intravenously over 30 minutes every three weeks; cited from earlier work"}, "variety of cancers": {"tested_on": "variety of cancers", "details": "phase I data; cited from earlier work"}, "P388 leukemia": {"tested_on": "P388 leukemia", "details": "mouse P388 leukemia model; cited from earlier work"}, "[1]": {"tested_on": "solid tumours or lymphomas", "details": "14 days every 21 days, body surface area basis; cited from earlier work"}, "[2]": {"tested_on": "poorly differentiated gastric adenocarcinoma", "details": "human xenografts; cited from earlier work"}, "[3]": {"tested_on": "advanced leukemias or myelodysplastic syndromes", "test": "Phase I study, b.i.d. x 7 days orally every 21 days", "assay_type": "in vivo", "description": "The Phase I study was conducted at M.D. Anderson Cancer Center (UTMDACC) in Houston, Tex. The primary objective was to define the MTD of a dosing schedule, b.i.d.×7 days orally every 21 days.\nEligible patients had relapsed/refractory leukemias or MDS, or untreated disease if not willing to proceed with conventional systemic chemotherapy, adequate organ functions and performance status of 0-2. At least 3 patients were enrolled at each dose level. The MTD was the highest dose level at which ≦ 2/6 patients experienced a DLT during the first treatment cycle."}, "[4]": {"details": "single-dose in rodents, repeat dose up to 3 months in mice and dogs; cited from earlier work"}, "[5]": {"tested_on": "refractory solid tumours or lymphomas", "test": "Open label dose escalation study of oral sapacitabine b.i.d. for 7 or 14 consecutive days every 21 days", "assay_type": "in vivo", "description": "The study was conducted at the Institute for Drug Development, Cancer Therapy and Research Center (CTRC) in San Antonio, Tex. and Fox Chase Cancer Center in Philadelphia, Pa. The primary objective of the study was to evaluate the safety profile of sapacitabine administered twice daily for 14 consecutive days or 7 consecutive days every 21 days.\nThe study was an open label dose escalation study of oral sapacitabine administered twice daily (b.i.d.) for 7 or 14 consecutive days every 21 days. One treatment cycle was 3 weeks. At least 3 patients were enrolled at each dose level. Dose escalation proceeded if ≦⅓ or ≦ 2/6 patients experienced dose limiting toxicity (DLT) during the first treatment cycle."}, "colon cancer": {"tested_on": "colon cancer", "details": "model of colon cancer; cited from earlier work"}, "cytidine deaminase": {"molecular_target": "cytidine deaminase (Homo sapiens, UniProt P32320)", "sequence (P32320 whole entry, species assumed)": "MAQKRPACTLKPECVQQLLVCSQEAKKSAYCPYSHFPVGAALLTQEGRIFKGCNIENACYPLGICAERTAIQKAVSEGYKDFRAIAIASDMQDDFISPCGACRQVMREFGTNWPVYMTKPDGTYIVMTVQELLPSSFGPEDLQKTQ", "details": "compared with ara-C; cited from earlier work"}, "CTCL": {"tested_on": "CTCL", "details": "cited from earlier work"}, "[6]": {"details": "7-day schedule every 21 days, oral"}, "[7]": {"details": "relapsed or refractory AML and MDS"}}}
{"smiles": "Nc1ccn([C@@H]2CO[C@H](CO)O2)c(=O)n1", "note": "[troxacitabine]", "values": [{"measurement": "activity in NSCLC", "setting": "NSCLC", "value": "little activity"}]}
{"smiles": "CCCCCCCCCCCCCCCC(=O)Nc1ccn([C@@H]2O[C@H](CO)[C@@H](O)[C@@H]2C#N)c(=O)n1", "note": "[sapacitabine, 1-(2-C-cyano-2-deoxy-β-D-arabino-pentofuranosyl)-N^4-palmitoyl cytosine]", "values": [{"measurement": "dose limiting toxicity", "setting": "variety of cancers", "value": "myelosuppression"}, {"measurement": "tolerability", "setting": "variety of cancers", "value": "well tolerated"}, {"measurement": "antitumour activity, comparison", "setting": "P388 leukemia", "value": "much more potent antitumour activity than 5′-DFUR and gemcitabine"}, {"measurement": "recommended dose", "setting": "[1]", "value": 33, "unit": "mg/m^2"}, {"measurement": "antitumour activity, comparison", "setting": "[2]", "value": "much more potent antitumour activity than 5′-DFUR and gemcitabine"}, {"measurement": "MTD", "setting": "[3]; [6]", "value": 375, "unit": "mg b.i.d."}, {"measurement": "recommended dose", "setting": "[3]; [6]", "value": 325, "unit": "mg b.i.d."}, {"measurement": "patients with reduction in bone marrow blast counts to <5%, AML", "setting": "[3]; AML subgroup of responders", "value": 9, "unit": "patients"}, {"measurement": "patients with reduction in bone marrow blast counts to <5%, MDS", "setting": "[3]; MDS subgroup of responders", "value": 2, "unit": "patients"}, {"measurement": "patients with reduction in bone marrow blast counts to <5%", "setting": "[3]; all evaluable patients", "value": "11 patients of 42 evaluable"}, {"measurement": "common non-hematologic adverse events, intensity", "setting": "[3]; all grades, regardless of causality", "value": "mild to moderate in intensity"}, {"measurement": "CRs with incomplete recovery of platelets", "setting": "[3]; in vivo", "value": 2, "unit": "patients"}, {"measurement": "complete remissions (CRs)", "setting": "[3]; in vivo", "value": 2, "unit": "patients"}, {"measurement": "deaths from complications of neutropenic colitis", "setting": "[3]; in vivo", "value": "One"}, {"measurement": "predominant DLT", "setting": "[3]; in vivo", "value": "gastrointestinal toxicity"}, {"measurement": "DLT: abdominal pain/small bowel obstruction", "setting": "[3]; number of patients", "value": 1, "unit": "n"}, {"measurement": "DLT: diarrhea", "setting": "[3]; number of patients", "value": 3, "unit": "n"}, {"measurement": "DLT: neutropenic colitis", "setting": "[3]; number of patients", "value": 2, "unit": "n"}, {"measurement": "antileukemic activity", "setting": "[3]; [7]", "value": "promising antileukemic activity"}, {"measurement": "tolerability", "setting": "[3]; [7]", "value": "well tolerated"}, {"measurement": "major toxicities", "setting": "[4]", "value": "hematopoietic, gastrointestinal, and testicular"}, {"measurement": "MTD", "setting": "[5]; [6]", "value": 100, "unit": "mg b.i.d."}, {"measurement": "RD (recommended dose)", "setting": "[5]; [6]", "value": 75, "unit": "mg b.i.d."}, {"measurement": "dose limiting toxicity", "setting": "[5]; 7 and 14 day schedules, 16 patients", "value": "reversible myelosuppression"}, {"measurement": "best response by investigator assessment", "setting": "[5]; 7 day schedule, squamous cell carcinoma", "value": "stable disease in one patient"}, {"measurement": "recommended dose", "setting": "[5]; 14 day schedule every 21 days, oral", "value": 50, "unit": "mg b.i.d."}, {"measurement": "non-hematological toxicities, severity", "setting": "[5]; in vivo", "value": "mostly mild to moderate"}, {"measurement": "anticancer activity", "setting": "colon cancer", "value": "strong anticancer activity"}, {"measurement": "increasing survival and preventing spread of metastases to the liver, comparison", "setting": "colon cancer", "value": "superior to either gemcitabine or 5-FU"}]}
{"smiles": "N#C[C@H]1[C@H](O)[C@@H](CO)O[C@H]1n1ccc(N)nc1=O", "note": "[CNDAC, 2′-C-Cyano-2′-deoxy-β-D-arabino-pentafuranosylcytosine]", "values": [{"measurement": "substrate of cytidine deaminase", "setting": "cytidine deaminase", "value": "weak substrate"}]}
{"smiles": "Nc1ccn([C@@H]2O[C@H](CO)[C@@H](O)C2(F)F)c(=O)n1", "note": "[Gemcitabine, gemcitabine]", "values": [{"measurement": "response rate", "setting": "CTCL", "value": "60-70%"}]}
